According to patent US8772499B2, “TRPV3 modulators” (AbbVie Inc., priority 2011, dated 2014):
Read-outs that look alike come from different tables or passages of the source. Each block holds one compound with its values, some of them ahead of it.

Columns and labels:
[1] = In vitro human microsomal stability assay; type: in vitro ADME; conditions: human, microsomes, 0.5 h, 0.5 μM, pH 7.4
Procedure, shortened: (§1)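 Metabolic stability measured in Sprague-Dawley rat or human liver microsomes at 37 °C. Reactions supplemented with NADPH.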

human TRPV3 = molecular target: T1, human TRPV3 (Homo sapiens, UniProt Q8NET8); assay: In vitro antagonism of recombinant human TRPV3 activation (FLIPR Tetra calcium assay); type: cell-based; conditions: HEK293 cells stably expressing human TRPV3, agonist 2-APB at 80 μM
T1 construct: expressed in transfected cells
T1 sequence (Q8NET8 1-790): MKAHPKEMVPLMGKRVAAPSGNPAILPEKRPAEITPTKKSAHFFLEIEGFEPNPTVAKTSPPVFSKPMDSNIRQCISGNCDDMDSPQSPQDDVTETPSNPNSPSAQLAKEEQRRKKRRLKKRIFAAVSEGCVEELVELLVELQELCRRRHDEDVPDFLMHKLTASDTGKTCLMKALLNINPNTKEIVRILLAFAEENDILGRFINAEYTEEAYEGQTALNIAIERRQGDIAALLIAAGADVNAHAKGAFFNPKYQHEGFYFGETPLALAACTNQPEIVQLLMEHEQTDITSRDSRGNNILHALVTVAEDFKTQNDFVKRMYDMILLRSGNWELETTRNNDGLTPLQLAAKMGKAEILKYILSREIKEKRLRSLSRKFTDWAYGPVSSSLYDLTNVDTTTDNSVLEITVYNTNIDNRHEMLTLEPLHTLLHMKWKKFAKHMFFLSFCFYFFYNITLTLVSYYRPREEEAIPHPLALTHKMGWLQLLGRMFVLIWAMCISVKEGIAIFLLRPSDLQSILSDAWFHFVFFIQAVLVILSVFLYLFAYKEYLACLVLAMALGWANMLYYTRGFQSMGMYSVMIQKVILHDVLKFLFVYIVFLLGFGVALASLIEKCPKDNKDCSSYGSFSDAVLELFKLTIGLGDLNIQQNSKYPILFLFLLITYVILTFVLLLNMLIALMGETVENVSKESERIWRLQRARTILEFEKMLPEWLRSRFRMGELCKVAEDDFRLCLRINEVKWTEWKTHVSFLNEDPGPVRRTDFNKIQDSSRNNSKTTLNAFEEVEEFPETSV
Procedure, shortened: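 HEK293 cells stably expressing human TRPV3, loaded with Calcium-4 dye for 90–120 min, received compound in DPBS, then 80 μM 2-APB (EC80) 3 min later. Max-minus-min fluorescence expressed as % of 2-APB response without antagonist; IC50 values mostly averages of n≥2 runs.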

[2] = In vitro rat microsomal stability assay; type: in vitro ADME, rat (Sprague-Dawley); conditions: Sprague-Dawley, rat, microsomes, 0.5 h, 0.5 μM, pH 7.4
Procedure, shortened: as §1

[3] = actual measured value shown parenthetically, in most cases average of at least two runs, read-out: IC50
[4] = reported range, read-out: IC50 (range class)

SMILES: COc1ccc(C(O)C2(c3ccc(Cl)c(Cl)c3)CCC2)nc1 (centres unmarked) [Example 287, [1-(3,4-dichlorophenyl)cyclobutyl](5-methoxypyridin-2-yl)methanol]
HUMAN MICROSOMAL STABILITY (% REMAINING AFTER 30 MINUTES) [1]: 15% | IC50 (human TRPV3; [3]): > 20 µM | IC50 (human TRPV3; [4]): > 20 µM | RAT MICROSOMAL STABILITY (% REMAINING AFTER 30 MINUTES) [2]: <0.01%

SMILES: CC(=O)O[C@H](c1ccccn1)C1(c2ccc(OC(F)(F)F)cc2)CCC1 [Example 288, (S)-pyridin-2-yl{1-[4-(trifluoromethoxy)phenyl]cyclobutyl}methyl acetate]
HUMAN MICROSOMAL STABILITY (% REMAINING AFTER 30 MINUTES) [1]: <0.01% | IC50 (human TRPV3; [3]): 14.6 µM | RAT MICROSOMAL STABILITY (% REMAINING AFTER 30 MINUTES) [2]: <0.01%

SMILES: COc1ccnc(C(O)C2(c3ccc(Cl)c(Cl)c3)CCC2)c1 (centres unmarked) [Example 289, [1-(3,4-dichlorophenyl)cyclobutyl](4-methoxypyridin-2-yl)methanol]
HUMAN MICROSOMAL STABILITY (% REMAINING AFTER 30 MINUTES) [1]: 4.2% | IC50 (human TRPV3; [3]): > 20 µM | IC50 (human TRPV3; [4]): > 20 µM | RAT MICROSOMAL STABILITY (% REMAINING AFTER 30 MINUTES) [2]: <0.01%

SMILES: OC(c1ccccn1)C1(c2nc3ccc(Cl)cc3s2)CCC1 (centres unmarked) [Example 292, [1-(6-chloro-1,3-benzothiazol-2-yl)cyclobutyl](pyridin-2-yl)methanol]
HUMAN MICROSOMAL STABILITY (% REMAINING AFTER 30 MINUTES) [1]: 19% | IC50 (human TRPV3; [3]): 0.56 µM | RAT MICROSOMAL STABILITY (% REMAINING AFTER 30 MINUTES) [2]: 5.4%

SMILES: O=C1CC(c2cncc(C(F)(F)F)c2)(C(O)c2ccccn2)C1 (centres unmarked) [Example 295, 3-[hydroxy(pyridin-2-yl)methyl]-3-[5-(trifluoromethyl)pyridin-3-yl]-cyclobutanone]
HUMAN MICROSOMAL STABILITY (% REMAINING AFTER 30 MINUTES) [1]: 70% | IC50 (human TRPV3; [3]): > 20 µM | IC50 (human TRPV3; [4]): > 20 µM | RAT MICROSOMAL STABILITY (% REMAINING AFTER 30 MINUTES) [2]: 8.2%

SMILES: OC(c1ccccn1)C1(c2ccnc(C(F)(F)F)c2)CC2(C1)OCCO2 (centres unmarked) [Example 297, pyridin-2-yl{2-[2-(trifluoromethyl)pyridin-4-yl]-5,8-dioxaspiro[3.4]oct-2-yl}methanol]
HUMAN MICROSOMAL STABILITY (% REMAINING AFTER 30 MINUTES) [1]: >85% | IC50 (human TRPV3; [3]): > 20 µM | IC50 (human TRPV3; [4]): > 20 µM | RAT MICROSOMAL STABILITY (% REMAINING AFTER 30 MINUTES) [2]: 2.0%

Further lines, results first:

HUMAN MICROSOMAL STABILITY (% REMAINING AFTER 30 MINUTES) [1]: >85% | IC50 (human TRPV3; [3]): 17.3 µM | RAT MICROSOMAL STABILITY (% REMAINING AFTER 30 MINUTES) [2]: 53%
SMILES: Cc1cc(C(F)(F)F)cc(C2([C@@H](O)c3ccccn3)CC(=O)C2)n1 [Example 291, 3-[(R)-hydroxy(pyridin-2-yl)methyl]-3-[6-methyl-4-(trifluoromethyl)-pyridin-2-yl]cyclobutanone]

HUMAN MICROSOMAL STABILITY (% REMAINING AFTER 30 MINUTES) [1]: 78% | IC50 (human TRPV3; [3]): > 20 µM | IC50 (human TRPV3; [4]): > 20 µM | RAT MICROSOMAL STABILITY (% REMAINING AFTER 30 MINUTES) [2]: 69%
SMILES: O=C1CC(c2cc(C(F)(F)F)ccn2)(C(O)c2ccccn2)C1 (centres unmarked) [Example 293, 3-[hydroxy(pyridin-2-yl)methyl]-3-[4-(trifluoromethyl)pyridin-2-yl]-cyclobutanone]

HUMAN MICROSOMAL STABILITY (% REMAINING AFTER 30 MINUTES) [1]: >85% | IC50 (human TRPV3; [3]): > 20 µM | IC50 (human TRPV3; [4]): > 20 µM | RAT MICROSOMAL STABILITY (% REMAINING AFTER 30 MINUTES) [2]: >85%
SMILES: OC1CC(c2cc(C(F)(F)F)ccn2)([C@H](O)c2ccccn2)C1 (stereo partly drawn) [Example 294, 3-[(S)-hydroxy(pyridin-2-yl)methyl]-3-[4-(trifluoromethyl)pyridin-2-yl]-cyclobutanol]

HUMAN MICROSOMAL STABILITY (% REMAINING AFTER 30 MINUTES) [1]: 67% | IC50 (human TRPV3; [3]): > 20 µM | IC50 (human TRPV3; [4]): > 20 µM | RAT MICROSOMAL STABILITY (% REMAINING AFTER 30 MINUTES) [2]: 12%
SMILES: O=C1CC(c2cncc(C(F)(F)F)c2)([C@H](O)c2ccccn2)C1 [Example 296, 3-[(S)-hydroxy(pyridin-2-yl)methyl]-3-[5-(trifluoromethyl)pyridin-3-yl]-cyclobutanone]

HUMAN MICROSOMAL STABILITY (% REMAINING AFTER 30 MINUTES) [1]: 80% | IC50 (human TRPV3; [3]): > 20 µM | IC50 (human TRPV3; [4]): > 20 µM | RAT MICROSOMAL STABILITY (% REMAINING AFTER 30 MINUTES) [2]: 59%
SMILES: O=C1CC(c2ccnc(C(F)(F)F)c2)(C(O)c2ccccn2)C1 (centres unmarked) [Example 298, 3-[hydroxy(pyridin-2-yl)methyl]-3-[2-(trifluoromethyl)pyridin-4-yl]-cyclobutanone]
